# Laboratory results from paper PMC2963310 (Science (New York, N.Y.), 2009).
# Assays:
# [1] = biological target: T1, LGC-53 (Caenorhabditis elegans, UniProt H2KYN9)
# [2] = biological target: T1, LGC-53; assay: cell-based
# [3] = biological target: T2, LGC-40 (Caenorhabditis elegans, UniProt Q22741); assay: Inhibition of choline-evoked LGC-40 currents in Xenopus oocytes; assay type: cell-based
# T2 sequence (Q22741 23-494): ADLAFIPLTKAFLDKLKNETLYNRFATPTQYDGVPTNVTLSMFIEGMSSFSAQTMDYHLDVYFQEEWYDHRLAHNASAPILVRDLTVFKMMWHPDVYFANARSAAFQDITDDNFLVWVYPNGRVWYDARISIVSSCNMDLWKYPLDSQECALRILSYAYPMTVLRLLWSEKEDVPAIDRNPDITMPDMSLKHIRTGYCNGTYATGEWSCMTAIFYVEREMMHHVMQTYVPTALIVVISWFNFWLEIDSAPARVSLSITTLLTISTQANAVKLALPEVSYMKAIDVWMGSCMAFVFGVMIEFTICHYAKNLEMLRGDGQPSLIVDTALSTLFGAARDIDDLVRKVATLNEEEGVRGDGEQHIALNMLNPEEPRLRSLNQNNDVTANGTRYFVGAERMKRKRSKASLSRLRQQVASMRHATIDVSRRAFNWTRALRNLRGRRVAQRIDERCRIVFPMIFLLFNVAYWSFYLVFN
# [4] = biological target: T1, LGC-53; assay: Inhibition of dopamine-evoked LGC-53 currents in Xenopus oocytes; assay type: cell-based
# [5] = biological target: T2, LGC-40; assay type: cell-based; details: for estimated Hill coefficient, LGC-40: dose-response data fitted to the Hill equation
# [6] = biological target: LGC-55 (Caenorhabditis elegans, UniProt G5EEC1); assay type: cell-based
# [7] = dose-response data fitted to the Hill equation
# [8] = panel: serotonin, dopamine, octopamine, tyramine, histamine
compound,measurement,setting,value
NCCc1ccc(O)c(O)c1 [dopamine],"estimated Hill coefficient, LGC-53",[1]; [7],1.9
same,efficacy of activation of LGC-53 among the biogenic amines tested (in words),[1]; [8],highest efficacy
same,EC50,[2],4.4 µM
"C[N+]1(C)CCOC(O)(c2ccc(-c3ccc(C4(O)C[N+](C)(C)CCO4)cc3)cc2)C1 (stereo not shown) [Hemicholinium-3, hemicholinium-3]",IC50,[3],2 µM
O=C(CCCN1CCC2(CC1)C(=O)NCN2c1ccccc1)c1ccc(F)cc1 [spiperone],IC50,[4],38 µM
CN1[C@@H]2CC[C@H]1C[C@@H](OC(=O)C(CO)c1ccccc1)C2 (stereo partly shown) [atropine],sensitivity of LGC-40 currents to antagonist (in words),[3]; currents evoked by 2 μM choline,relatively insensitive
C[N+](C)(C)CCO [choline],EC50,[5],3.4 µM
same,"estimated Hill coefficient, LGC-40",[5],1.9
NCCc1c[nH]c2ccc(O)cc12 [serotonin],EC50,[5],905 µM
same,"estimated Hill coefficient, LGC-40",[5],2.7
CC(=O)OCC[N+](C)(C)C [acetylcholine],EC50,[5],87 µM
same,"estimated Hill coefficient, LGC-40",[5],1.5
NCCc1ccc(O)cc1 [tyramine],EC50,[6],6 µM
same,"estimated Hill coefficient, LGC-55",[6]; [7],1.8
same,efficacy of activation of LGC-55 among the biogenic amines tested (in words),[6]; [8],highest efficacy
COc1cc2c3cc1Oc1cc(ccc1O)C[C@@H]1c4c(cc(OC)c(O)c4Oc4ccc(cc4)C[C@@H]3N(C)CC2)CC[N+]1(C)C [d-tubocurarine],IC50,[3],8.3 µM
